16 compounds from patent US20230382940A1, “ANTIVIRAL COMPOUNDS AND METHODS OF MAKING AND USING THE SAME” (Gilead Sciences, Inc., priority 2022, published 2023) can be followed below.

In general, EC50 refers to the concentration that produces a half-maximal response.

Data set [1] in a line: GI S9 stability, human, Example Y. The format is in vitro ADME. Particulars: pooled intestinal S9 fractions; human intestinal S9, 1.0 mg/mL protein, 2 μM compound, pH 7.4; read-out: GIS9 Human T½ (per Ex. Y). The method, then:
Example Y: GI S9 Stability Data
Stock solutions of test compounds in dimethyl sulfoxide (DMSO) having a final concentration of 10 mM were prepared and used in all experiments. Sekisui XenoTech (Kansas City, KS) provided pooled intestinal S9 fractions. All other chemicals were purchased from Sigma-Aldrich (St. Louis, MO) or VWR (West Chester, PA). Internal Standard/Quench (IS/Q) used to stop reactions was 100 nM labetalol in (by volume) methanol (10%) and acetonitrile (90%).
Stability in Intestinal S9 Fractions: Duplicate aliquots of test compound or positive control substrate were added to S9 stock diluted with phosphate buffered saline (137 mM NaCl, 2.7 mM KCl, 10 mM phosphate buffer), pH 7.4, to obtain a protein concentration of 1.0 mg/mL. The metabolic reactions were initiated by the addition of the substrates to the S9 reaction mixture to a final concentration of 2 μM. At 0, 10, 20, 30, 60 and 120 min, 25 μL aliquots of the reaction mixture were transferred to plates containing 225 μl of IS/Q solution. After quenching, the plates were centrifuged at 3000×g for 30 minutes. 150 μL aliquots of each supernatant were dried down then reconstituted with 300 μL water. Aliquots (10 μL) of the prepared samples were analyzed on a Thermo Q-Exactive mass spectrometer as described below.
Liquid Chromatography—Mass Spectrometry: Quantification of test compounds and control substrate was performed by analyte/internal standard peak area ratio (PAR) values measured on a Thermo Q-Exactive mass spectrometer coupled to a Dionex UltiMate 3000 HPLC with a Leap Technologies HTC PAL autosampler. The column used for analysis was a Waters Acquity BEH C18 (1.7 μm particle size, 2.1×50 mm). Mobile phase A consisted of 0.1% (v/v) formic acid in water. Mobile phase B consisted of 0.1% (v/v) formic acid in acetonitrile. Elution of analytes was achieved by a series of linear gradients varying the proportions of A and B. The mass spectrometer was calibrated on a weekly basis and mass tolerance of 5 ppm was used.
Metabolic stabilities in S9 fractions were determined by measuring the rates of disappearance of test compound and positive control substrate.
Data (% of substrate remaining) were plotted on a semi-log scale and fitted using an exponential decline model:
Ct=C0×e^−ln2/T1/2×t • Where Ct—% of substrate remaining at time=t; C0—% of substrate remaining at time=0; t—time; T1/2—half-life. • The Half-life (T1/2) is determined by the following equation: […]
Assuming a first-order reaction, the slope (k) is extrapolated from the aforementioned plotted data.

The test system of data set [2] is Respiratory syncytial virus recombinant with luciferase (RSV-Luc5). Kind of data set: HEp-2 RSV-Luc5 384-well assay (EC50 RSVFLUC Hep2-384 v2), Example V. The format is cell-based. Particulars: human respiratory syncytial virus, HEp-2, 72 h, read-out: EC50 RSV FLuc Hep-2 384 V2 (per Ex. V). From the text: Example V: HEp-2 RSV-Luc5 384-Well Assay (EC50 RSVFLUC Hep2-384 v2)
HEp-2 cell line was purchased from ATCC (Manassas, VA Cat #CCL-23) and maintained in Dulbecco's […] (DMEM) (Corning, New York, NY, Cat #15-018CM) supplemented with 10% fetal bovine serum (FBS) (Hyclone, Logan, UT, Cat #SH30071-03) and 1× Penicillin-Streptomycin-L-Glutamine (Corning, New York, NY, Cat #30-009-C1). Cells were passaged 2 times per week to maintain sub-confluent densities and were used for experiments at passage 5-20. Respiratory syncytial virus recombinant with luciferase (RSV-Luc5) (≥1×107 TCID50/ml) was purchased from Microbiologics (Saint Cloud, MN). Viral replication was determined in HEp-2 cells in the following manner.
Compounds are prepared in 100% DMSO in 384-well polypropylene plates (Greiner, Monroe, NC, Cat #784201) with 8 compounds per plate in grouped replicates of 4 at 10 serially diluted concentrations (1:3). The serially diluted compounds were transferred to low dead volume Echo plates (Labcyte, Sunnyvale, CA, Cat #LP-0200).
The test compounds were spotted to 384-well assay plates (Greiner, Monroe, NC, Cat #781091) at 200 nL per well. HEp-2 cells were harvested and suspended in DMEM (supplemented with 10% FBS and 1× Penicillin-Streptomycin-L-Glutamine) and seeded to the pre-spotted assay plates at 4,000 cells per well in 30 μL. RSV-Luc5 viruses were diluted in DMEM (supplemented with 10% FBS and 1× Penicillin-Streptomycin-L-(Glutamine) at 200,000 Infectious Units (IU) per mL and 10 μL per well was added to the assay plates containing cells and compounds, for an MOI=0.5. The assay plates were incubated for 3 days at 37° C. and 5% CO2. At the end of incubation, One-Glo reagent (Promega, Madison, WI, Cat #E6120) was prepared. The assay plates and One-Glo reagent were equilibrated to room temperature for at least 15 minutes. 40 μL per well of One-Glo reagent was added and the plates were incubated at room temp for 15 minutes before reading the luminescence signal on an EnVision multimode plate reader (Perkin Elmer, Waltham, MA). Remdesivir was used as positive control and DMSO was used as negative control. Values were normalized to the positive and negative controls (as 0% and 100% replication, respectively) and data was fitted using non-linear regression analysis by Gilead's dose response tool. The EC50 value for each compound was then determined as the concentration reducing the viral replication by 50%.

For the compound `CCCCCCOC(=O)OC[C@@]1(C#N)O[C@@H](c2ccc3c(N)ncnn23)[C@H](O)[C@@H]1O` [Compound 19, ((2R,3S,4R,5S)-5-(4-aminopyrrolo[2,1-f][1,2,4]triazin-7-yl)-2-cyano-3,4-dihydroxytetrahydrofuran-2-yl)methyl hexyl carbonate], the half-life at 2 μM in data set [1] was 11 min. Moreover, the EC50 in data set [2] was 13.6 µM.
Taken in the same sequence, the figures for `CCCCCOC(=O)OC[C@@]1(C#N)O[C@@H](c2ccc3c(N)ncnn23)[C@H](O)[C@@H]1O` [Compound 20, ((2R,3S,4R,5S)-5-(4-aminopyrrolo[2,1-f][1,2,4]triazin-7-yl)-2-cyano-3,4-dihydroxytetrahydrofuran-2-yl)methyl pentyl carbonate] were 16 min and 13.7 µM.
The matching figures for `N#C[C@]1(COC(=O)OC2CCCCC2)O[C@@H](c2ccc3c(N)ncnn23)[C@H](O)[C@@H]1O` [Compound 21, ((2R,3S,4R,5S)-5-(4-aminopyrrolo[2,1-f][1,2,4]triazin-7-yl)-2-cyano-3,4-dihydroxytetrahydrofuran-2-yl)methyl cyclohexyl carbonate]: 44 min and 21.9 µM.
`CCOC(=O)OC[C@@]1(C#N)O[C@@H](c2ccc3c(N)ncnn23)[C@H](O)[C@@H]1O` [Compound 22, ((2R,3S,4R,5S)-5-(4-aminopyrrolo[2,1-f][1,2,4]triazin-7-yl)-2-cyano-3,4-dihydroxytetrahydrofuran-2-yl)methyl ethyl carbonate]: the half-life at 2 μM in data set [1] was determined as 55 min. Also, in data set [2], the EC50 amounted to 26.3 µM.
For the compound `N#C[C@]1(COC(=O)OC2CC2)O[C@@H](c2ccc3c(N)ncnn23)[C@H](O)[C@@H]1O` [Compound 23, ((2R,3S,4R,5S)-5-(4-aminopyrrolo[2,1-f][1,2,4]triazin-7-yl)-2-cyano-3,4-dihydroxytetrahydrofuran-2-yl)methyl cyclopropyl carbonate], in data set [1], the half-life at 2 μM was 19 min. The EC50 in data set [2] worked out at 15.4 µM.
In the case of `N#C[C@]1(COC(=O)O[C@@H]2CCOC2)O[C@@H](c2ccc3c(N)ncnn23)[C@H](O)[C@@H]1O` [Compound 24, ((2R,3S,4R,5S)-5-(4-aminopyrrolo[2,1-f][1,2,4]triazin-7-yl)-2-cyano-3,4-dihydroxytetrahydrofuran-2-yl)methyl ((R)-tetrahydrofuran-3-yl) carbonate], in data set [1], the half-life at 2 μM was 178 min. Moreover, the 50% effective concentration (EC50) in data set [2] was 29.5 µM.
The matching figures for `CC[C@H](C)COC(=O)OC[C@@]1(C#N)O[C@@H](c2ccc3c(N)ncnn23)[C@H](O)[C@@H]1O` [Compound 28, ((2R,3S,4R,5S)-5-(4-aminopyrrolo[2,1-f][1,2,4]triazin-7-yl)-2-cyano-3,4-dihydroxytetrahydrofuran-2-yl)methyl ((S)-2-methylbutyl) carbonate]: 18 min and 18.2 µM.
Regarding `N#C[C@]1(COC(=O)OCc2ccccc2)O[C@@H](c2ccc3c(N)ncnn23)[C@H](O)[C@@H]1O` [Compound 29, ((2R,3S,4R,5S)-5-(4-aminopyrrolo[2,1-f][1,2,4]triazin-7-yl)-2-cyano-3,4-dihydroxytetrahydrofuran-2-yl)methyl benzyl carbonate], in data set [1], the half-life at 2 μM was 15 min. Besides, the EC50 in data set [2] came out at 19.6 µM.
The matching figures for `N#C[C@]1(COC(=O)OCC2CCCC2)O[C@@H](c2ccc3c(N)ncnn23)[C@H](O)[C@@H]1O` [Compound 30, ((2R,3S,4R,5S)-5-(4-aminopyrrolo[2,1-f][1,2,4]triazin-7-yl)-2-cyano-3,4-dihydroxytetrahydrofuran-2-yl)methyl (cyclopentylmethyl) carbonate]: 15 min and 23 µM.
Taken in the same sequence, the figures for `CCC(CC)COC(=O)OC[C@@]1(C#N)O[C@@H](c2ccc3c(N)ncnn23)[C@H](O)[C@@H]1O` [Compound 31, ((2R,3S,4R,5S)-5-(4-aminopyrrolo[2,1-f][1,2,4]triazin-7-yl)-2-cyano-3,4-dihydroxytetrahydrofuran-2-yl)methyl (2-ethylbutyl) carbonate] were 18 min and 20.3 µM.
Taken in the same sequence, the figures for `N#C[C@]1(COC(=O)OCC2CC2)O[C@@H](c2ccc3c(N)ncnn23)[C@H](O)[C@@H]1O` [Compound 32, ((2R,3S,4R,5S)-5-(4-aminopyrrolo[2,1-f][1,2,4]triazin-7-yl)-2-cyano-3,4-dihydroxytetrahydrofuran-2-yl)methyl (cyclopropylmethyl) carbonate] were 33 min and 20.6 µM.
Consider `N#C[C@]1(COC(=O)O[C@H]2CCOC2)O[C@@H](c2ccc3c(N)ncnn23)[C@H](O)[C@@H]1O` [Compound 33, ((2R,3S,4R,5S)-5-(4-aminopyrrolo[2,1-f][1,2,4]triazin-7-yl)-2-cyano-3,4-dihydroxytetrahydrofuran-2-yl)methyl ((S)-tetrahydrofuran-3-yl) carbonate], for which the half-life at 2 μM in data set [1] amounted to 250 min. Also, in data set [2], the EC50 worked out at 25.1 µM.
`CCCOCCOC(=O)OC[C@@]1(C#N)O[C@@H](c2ccc3c(N)ncnn23)[C@H](O)[C@@H]1O` [Compound 34, ((2R,3S,4R,5S)-5-(4-aminopyrrolo[2,1-f][1,2,4]triazin-7-yl)-2-cyano-3,4-dihydroxytetrahydrofuran-2-yl)methyl (2-propoxyethyl) carbonate]: in data set [1], the half-life at 2 μM was 108 min. For the same compound, the concentration giving a half-maximal response (EC50) in data set [2] came to 17.6 µM.
The matching figures for `CC(C)(C)CCOC(=O)OC[C@@]1(C#N)O[C@@H](c2ccc3c(N)ncnn23)[C@H](O)[C@@H]1O` [Compound 35, ((2R,3S,4R,5S)-5-(4-aminopyrrolo[2,1-f][1,2,4]triazin-7-yl)-2-cyano-3,4-dihydroxytetrahydrofuran-2-yl)methyl (3,3-dimethylbutyl) carbonate]: 19 min and 18.9 µM.
As to `N#C[C@]1(COC(=O)OC2CC3(CCC3)C2)O[C@@H](c2ccc3c(N)ncnn23)[C@H](O)[C@@H]1O` [Compound 36, ((2R,3S,4R,5S)-5-(4-aminopyrrolo[2,1-f][1,2,4]triazin-7-yl)-2-cyano-3,4-dihydroxytetrahydrofuran-2-yl)methyl spiro[3.3]heptan-2-yl carbonate], in data set [1], the half-life at 2 μM stood at 14 min. The EC50 in data set [2] was 14.3 µM.
Regarding `CC1(C)CC(OC(=O)OC[C@@]2(C#N)O[C@@H](c3ccc4c(N)ncnn34)[C@H](O)[C@@H]2O)C1` [Compound 37, ((2R,3S,4R,5S)-5-(4-aminopyrrolo[2,1-f][1,2,4]triazin-7-yl)-2-cyano-3,4-dihydroxytetrahydrofuran-2-yl)methyl (3,3-dimethylcyclobutyl) carbonate], the half-life at 2 μM in data set [1] was 29 min. Also, the concentration giving a half-maximal response (EC50) in data set [2] was found to be 21.3 µM.
